Measurements: patent publication EP4806894A1, “TNAP INHIBITORY COMPOUND AND USE THEREOF” (Rednvia Co., Ltd., priority 2023, dated 2025)
Where a name gives a salt, the structure may show the parent alone.

Columns and labels:
TNAP = biological target: T1, TNAP (Homo sapiens, UniProt P05186); assay: TNAP inhibitory activity, colorimetric assay (alkaline phosphatase assay kit ab83369, pNPP substrate); format: biochemical; conditions: TNAP enzyme, 2 hours at room temperature, absorbance 405 nm
T1 sequence (P05186 18-502 limits assumed): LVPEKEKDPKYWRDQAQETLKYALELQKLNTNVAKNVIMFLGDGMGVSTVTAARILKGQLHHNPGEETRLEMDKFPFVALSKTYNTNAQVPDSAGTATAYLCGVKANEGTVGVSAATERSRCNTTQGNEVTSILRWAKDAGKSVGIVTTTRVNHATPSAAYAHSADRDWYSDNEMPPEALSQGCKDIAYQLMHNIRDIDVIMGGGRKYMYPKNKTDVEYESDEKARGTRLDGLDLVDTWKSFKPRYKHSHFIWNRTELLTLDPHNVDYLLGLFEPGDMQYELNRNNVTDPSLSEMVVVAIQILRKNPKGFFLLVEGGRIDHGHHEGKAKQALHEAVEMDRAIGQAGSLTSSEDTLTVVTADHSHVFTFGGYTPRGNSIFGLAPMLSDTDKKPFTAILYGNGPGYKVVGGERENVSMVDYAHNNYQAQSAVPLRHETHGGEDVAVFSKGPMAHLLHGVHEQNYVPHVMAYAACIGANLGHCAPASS
Description: The TNAP inhibitory activity of the compounds according to the present invention was analyzed by colorimetric assay.
The experiments were performed according to the protocol of the alkaline phosphatase assay kit ab83369.
TNAP enzyme at a concentration of 0.2 ng/µl was dispensed into a 96-well plate (Costar) (10 µl/well), to which the 10-fold diluted test substance was added (15 µl/well). The plate was incubated at room temperature, shielded from light, for 10 minutes to allow the enzyme and compound to act. After incubation, 125 µl of 1 mM substrate (pNPP) was added to each well of the plate, and the plate was incubated for 2 hours at room temperature in a darkened state to allow the enzyme, substrate, and test compound to act. Absorbance was measured at 405 nm using a microplate reader (Tecan spark), and IC50 was calculated using GraphPad Prism 9. The amount of p-nitrophenol produced was calculated through the absorbance, and the degree of TNAP activity inhibition was evaluated through the degree of inhibition of p-nitrophenol production, and the concentration of the compound that inhibited 50% was calculated as the IC50 value.

saos-2 cells = assay: Anticalcification efficacy in saos-2 cells (osteogenic medium, Alizarin Red staining); format: cell-based; conditions: Homo sapiens, 168 h, test compound 1 µM, 7 days osteogenic medium, Alizarin Red absorbance 540 nm, read-out: calcification inhibition
Description: To confirm the inhibitory effect of calcification in saos-2 cells in which calcification is induced by overexpression of TNAP, saos-2 cells were cultured in a culture medium in an incubator at 37°C, 95% humidity, and 5% CO2. RPMI-1640 (Corning) supplemented with 10% FBS (Gibco) and 1% Pen/Strep (Gibco) was used as the culture medium.
Saos-2 cells were seeded in a 48-well plate at the density of 1.5 x 10^4 cells/well and used in the experiment when they reached 80-90% confluence after stabilization for 2 days.
After saos-2 cells were cultured in a 48-well plate to 80-90% confluence, the culture medium was removed and replaced with an osteogenic medium (OM). DMEM (Gibco) containing 10% FBS, 1% Pen/Strep, 100 nM dexamethasone (Sigma), 10 mM β-glycerophosphate (Sigma), and 0.05 mM L-ascorbic acid (Sigma) was used as the OM. Osteogenic differentiation of saos-2 cells by OM was induced for 7 days, and OM was replaced every 2 to 3 days.
When inducing calcification through OM in saos-2 cells, the cells were treated with concentrations of […] of the TNAP inhibitor test compounds with the OM replacement cycle, except for the control group (OM).
After 7 days of OM induction, the medium was removed from each well and the plate was washed twice with PBS. Cells were fixed with 4% paraformaldehyde for 1 hour, then the fixative was removed and washed twice with deionized water (DW). ARS solution was added to the plate and shaken for 1 hour to stain the cells. When the cells were sufficiently stained red, the dye was removed, the cells were washed carefully with DW, dried, and then photographs were taken of the stained cells. The red-stained area represents calcification induced by OM, and the degree of calcification was determined based on the degree of redness. To quantify this, 10% cetylpyridinium chloride was dispensed into the wells and the dye was dissolved. The dye-dissolved solution was transferred to each well of a 96 well plate and absorbance was measured at 540 nm.
The degree of decrease in the measured absorbance by the test compounds based on the absorbance for OM was evaluated as the degree of inhibition of calcification.

Compound | IC50 (TNAP) | inhibition at 1 µM (saos-2 cells)
COC(=O)Cc1ccc(-c2ccc(OC)c(S(=O)(=O)Nc3cnc4c(c3)C(=O)NC4)c2)cc1 [Example 27, methyl 2-(4'-methoxy-3'-(N-(5-oxo-6,7-dihydro-5H-pyrrolo[3,4-b]pyridine-3-yl)sulfamoyl)-[1,1'-biphenyl]-4-yl)acetate] | 0.1 to 1 µM | ≥ 50%
COc1ccc(-c2ccc(CC(=O)O)cc2)cc1S(=O)(=O)Nc1cnc2c(c1)C(=O)NC2 [Example 28, 2-(4'-methoxy-3'-(N-(5-oxo-6,7-dihydro-5H-pyrrolo[3,4-b]pyridine-3-yl)sulfamoyl)-[1,1'-biphenyl]-4-yl)acetic acid] | 0.01 to 0.1 µM | ≥ 50%
COc1ccc(-c2ccc3c(c2)OCCO3)cc1S(=O)(=O)Nc1cnc2c(c1)C(=O)NCC2 [Example 29, 5-(2,3-dihydrobenzo[b][1,4]dioxine-6-yl)-2-methoxy-N-(5-oxo-5,6,7,8-tetrahydro-1,6-naphthyridine-3-yl)benzenesulfonamide] | 0.1 to 1 µM | ≥ 50%
COc1ccc(-c2ccc(OC)c(S(=O)(=O)Nc3cnc4c(c3)C(=O)NCC4)c2)cc1 [Example 30, 4,4'-dimethoxy-N-(5-oxo-5,6,7,8-tetrahydro-1,6-naphthyridine-3-yl)-[1,1'-biphenyl]-3-sulfonamide] | ≥ 1 µM | 0 to 50%
COc1ccc(-c2ccncc2)cc1S(=O)(=O)Nc1cnc2c(c1)C(=O)NCC2 [Example 31, 2-methoxy-N-(5-oxo-5,6,7,8-tetrahydro-1,6-naphthyridine-3-yl)-5-(pyridine-4-yl)benzenesulfonamide] | 0.1 to 1 µM | ≥ 50%
COc1ccc(-c2ccc(C3(C(=O)O)CC3)cc2)cc1S(=O)(=O)Nc1cnc2c(c1)C(=O)NCC2 [Example 32, 1-(4'-methoxy-3'-(N-(5-oxo-5,6,7,8-tetrahydro-1,6-naphthyridine-3-yl)sulfamoyl)-[1,1'-biphenyl]-4-yl)cyclopropane-1-carboxylic acid] | 0.01 to 0.1 µM | ≥ 50%
COc1ccc(-c2ccc(CC(=O)O)cc2)cc1S(=O)(=O)Nc1cnc2c(c1)C(=O)NCC2 [Example 33, 2-(4'-methoxy-3'-(N-(5-oxo-5,6,7,8-tetrahydro-1,6-naphthyridine-3-yl)sulfamoyl)-[1,1'-biphenyl]-4-yl)acetic acid] | 0.01 to 0.1 µM | ≥ 50%
COc1ccc(-c2ccc(C(=O)O)cc2)cc1S(=O)(=O)Nc1cnc2c(c1)C(=O)NCC2 [Example 34, 4'-methoxy-3'-(N-(5-oxo-5,6,7,8-tetrahydro-1,6-naphthyridine-3-yl)sulfamoyl)-[1,1'-biphenyl]-4-carboxylic acid] | 0.1 to 1 µM | ≥ 50%
O=C(O)Cc1ccc(-c2ccc(F)cc2S(=O)(=O)Nc2cnc3c(c2)C(=O)NCC3)cc1 [Example 35, 2-(4'-fluoro-2'-(N-(5-oxo-5,6,7,8-tetrahydro-1,6-naphthyridine-3-yl)sulfamoyl)-[1,1'-biphenyl]-4-yl)acetic acid] | ≤ 0.01 µM | ≥ 50%
O=C1NCCc2ncc(NS(=O)(=O)c3cc(F)ccc3-c3ccc(C4(C(=O)O)CC4)cc3)cc21 [Example 36, 1-(4'-fluoro-2'-(N-(5-oxo-5,6,7,8-tetrahydro-1,6-naphthyridine-3-yl)sulfamoyl)-[1,1'-biphenyl]-4-yl)cyclopropane-1-carboxylic acid] | 0.01 to 0.1 µM | ≥ 50%
O=C1NCCc2ncc(NS(=O)(=O)c3c(F)cc(F)cc3-c3ccc(C4(C(=O)O)CC4)cc3)cc21 [Example 37, 1-(3',5'-difluoro-2'-(N-(5-oxo-5,6,7,8-tetrahydro-1,6-naphthyridine-3-yl)sulfamoyl)-[1,1'-biphenyl]-4-yl)cyclopropane-1-carboxylic acid] | ≥ 1 µM | < 0%
O=C1NCCc2ncc(NS(=O)(=O)c3cc(-c4ccc(C5(C(=O)O)CC5)cc4)cc4c3OCC4)cc21 [Example 38, 1-(4-(7-(N-(5-oxo-5,6,7,8-tetrahydro-1,6-naphthyridine-3-yl)sulfamoyl)-2,3-dihydrobenzofuran-5-yl)phenyl)cyclopropane-1-carboxylic acid] | ≥ 1 µM | < 0%
NCc1ccc(-c2cc(F)cc(F)c2S(=O)(=O)Nc2cnc3c(c2)C(=O)NCC3)cc1 [Example 40, 4'-(aminomethyl)-3,5-difluoro-N-(5-oxo-5,6,7,8-tetrahydro-1,6-naphthyridine-3-yl)-[1,1'-biphenyl]-2-sulfonamide hydrochloride] | ≥ 1 µM | < 0%
NCc1ccc(-c2cc3c(c(S(=O)(=O)Nc4cnc5c(c4)C(=O)NCC5)c2)OCC3)cc1 [Example 41, 5-(4-(aminomethyl)phenyl)-N-(5-oxo-5,6,7,8-tetrahydro-1,6-naphthyridine-3-yl)-2,3-dihydrobenzofuran-7-sulfonamide] | ≥ 1 µM | < 0%
CCOC(=O)C(C)n1cc(-c2ccc(OC)c(S(=O)(=O)Nc3cnc4c(c3)C(=O)NCC4)c2)cn1 (stereo not drawn) [Example 42, ethyl 2-(4-(4-methoxy-3-(N-(5-oxo-5,6,7,8-tetrahydro-1,6-naphthyridine-3-yl)sulfamoyl)phenyl)-1H-pyrazole-1-yl)propanoate] | ≤ 0.01 µM | ≥ 50%
COc1ccc(-c2cnn(C(C)C(=O)O)c2)cc1S(=O)(=O)Nc1cnc2c(c1)C(=O)NCC2 (stereo not drawn) [Example 43, 2-(4-(4-methoxy-3-(N-(5-oxo-5,6,7,8-tetrahydro-1,6-naphthyridine-3-yl)sulfamoyl)phenyl)-1H-pyrazole-1-yl)propanoic acid] | 0.01 to 0.1 µM | ≥ 50%
COc1ccc(-c2cnc(N)nc2)cc1S(=O)(=O)Nc1cnc2c(c1)C(=O)NCC2 [Example 44, 5-(2-aminopyrimidine-5-yl)-2-methoxy-N-(5-oxo-5,6,7,8-tetrahydro-1,6-naphthyridine-3-yl)benzenesulfonamide] | 0.1 to 1 µM | ≥ 50%
COc1ccc(-c2cnn3ccccc23)cc1S(=O)(=O)Nc1cnc2c(c1)C(=O)NCC2 [Example 45, 2-methoxy-N-(5-oxo-5,6,7,8-tetrahydro-1,6-naphthyridine-3-yl)-5-(pyrazolo[1,5-a]pyridine-3-yl)benzenesulfonamide] | 0.1 to 1 µM | ≥ 50%
COc1ccc(-c2cc(F)c(O)c(F)c2)cc1S(=O)(=O)Nc1cnc2c(c1)C(=O)NCC2 [Example 46, 3',5'-difluoro-4'-hydroxy-4-methoxy-N-(5-oxo-5,6,7,8-tetrahydro-1,6-naphthyridine-3-yl)-[1,1'-biphenyl]-3-sulfonamide] | 0.1 to 1 µM | ≥ 50%
COc1ccc(-c2cnn(CC(=O)OC(C)(C)C)c2)cc1S(=O)(=O)Nc1cnc2c(c1)C(=O)NCC2 [Example 47, tert-butyl 2-(4-(4-methoxy-3-(N-(5-oxo-5,6,7,8-tetrahydro-1,6-naphthyridine-3-yl)sulfamoyl)phenyl)-1H-pyrazole-1-yl)acetate] | 0.1 to 1 µM | ≥ 50%
COc1ccc(-c2cnn(CC(=O)O)c2)cc1S(=O)(=O)Nc1cnc2c(c1)C(=O)NCC2 [Example 48, 2-(4-(4-methoxy-3-(N-(5-oxo-5,6,7,8-tetrahydro-1,6-naphthyridine-3-yl)sulfamoyl)phenyl)-1H-pyrazole-1-yl)acetic acid] | 0.01 to 0.1 µM | ≥ 50%
